The text below walks through data of PubChem BioAssay AID1259407 (Chemical Carcinogenesis Research Information System (CCRIS), 2018).

Calls of active or inactive are those of the source. No rule for the calls is given here.

The series concerns CCRIS mutagenicity, Ames/micronucleus/aberration tests. Description: CCRIS mutagenicity studies.
Where [1] appears, read: Test System: AMES SALMONELLA TYPHIMURIUM, Strain/Indicator: TA98, Metabolic Activation: NONE, Method: PREINCUBATION
Setting [2] is: Test System: AMES SALMONELLA TYPHIMURIUM, Strain/Indicator: TA100, Metabolic Activation: NONE, Method: PREINCUBATION
Setting [3] is: Test System: AMES SALMONELLA TYPHIMURIUM, Strain/Indicator: TA1535, Metabolic Activation: NONE, Method: STANDARD PLATE.
[4] abbreviates: Test System: AMES SALMONELLA TYPHIMURIUM, Strain/Indicator: TA1535, Metabolic Activation: NONE, Method: PREINCUBATION
Where [5] appears, read: Test System: AMES SALMONELLA TYPHIMURIUM, Strain/Indicator: TA1537, Metabolic Activation: NONE, Method: PREINCUBATION
Setting [6] is: Test System: E. COLI, Strain/Indicator: WP2 UVRA, Metabolic Activation: NONE, Method: PREINCUBATION

Take `Cc1ccc2c(c1)C(=O)c1cc(O)ccc1C2=O`: the mutagenic call reads like this: under setting [1], “inactive; negative”; (Test System: AMES SALMONELLA TYPHIMURIUM, Strain/Indicator: TA98, Metabolic Activation: RAT, LIVER, S-9, PCB, Method: PREINCUBATION) “active; positive”; under setting [2], “active; positive”; (Test System: AMES SALMONELLA TYPHIMURIUM, Strain/Indicator: TA100, Metabolic Activation: RAT, LIVER, S-9, PCB, Method: PREINCUBATION) “active; positive”.

For the compound `O=C1N=NC(=O)C2C=CC=CC12` (stereo not given), the mutagenic call by setting is: (Test System: AMES SALMONELLA TYPHIMURIUM, Strain/Indicator: TA98, Metabolic Activation: HAMSTER, LIVER, S-9, AROCLOR 1254, Method: STANDARD PLATE) “inactive; negative”; (Test System: AMES SALMONELLA TYPHIMURIUM, Strain/Indicator: TA98, Metabolic Activation: NONE, Method: STANDARD PLATE) “inactive; negative”; (Test System: AMES SALMONELLA TYPHIMURIUM, Strain/Indicator: TA98, Metabolic Activation: RAT, LIVER, S-9, AROCLOR 1254, Method: STANDARD PLATE) “inactive; negative”; (Test System: AMES SALMONELLA TYPHIMURIUM, Strain/Indicator: TA100, Metabolic Activation: HAMSTER, LIVER, S-9, AROCLOR 1254, Method: STANDARD PLATE) “inactive; negative”; (Test System: AMES SALMONELLA TYPHIMURIUM, Strain/Indicator: TA100, Metabolic Activation: NONE, Method: STANDARD PLATE) “inactive; negative”; (Test System: AMES SALMONELLA TYPHIMURIUM, Strain/Indicator: TA100, Metabolic Activation: RAT, LIVER, S-9, AROCLOR 1254, Method: STANDARD PLATE) “inactive; negative”. The mutagenic call (Test System: AMES SALMONELLA TYPHIMURIUM, Strain/Indicator: TA1535, Metabolic Activation: HAMSTER, LIVER, S-9, AROCLOR 1254, Method: STANDARD PLATE) was “inactive; negative”; the mutagenic call under setting [3] is “inactive; negative”; the mutagenic call (Test System: AMES SALMONELLA TYPHIMURIUM, Strain/Indicator: TA1535, Metabolic Activation: RAT, LIVER, S-9, AROCLOR 1254, Method: STANDARD PLATE) is “inactive; negative”; the mutagenic call (Test System: AMES SALMONELLA TYPHIMURIUM, Strain/Indicator: TA1537, Metabolic Activation: HAMSTER, LIVER, S-9, AROCLOR 1254, Method: STANDARD PLATE) was “inactive; negative”; the mutagenic call (Test System: AMES SALMONELLA TYPHIMURIUM, Strain/Indicator: TA1537, Metabolic Activation: NONE, Method: STANDARD PLATE) is “inactive; negative”; the mutagenic call (Test System: AMES SALMONELLA TYPHIMURIUM, Strain/Indicator: TA1537, Metabolic Activation: RAT, LIVER, S-9, AROCLOR 1254, Method: STANDARD PLATE) was “inactive; negative”. In addition, the mutagenic call is, setting by setting: (Test System: AMES SALMONELLA TYPHIMURIUM, Strain/Indicator: TA1538, Metabolic Activation: HAMSTER, LIVER, S-9, AROCLOR 1254, Method: STANDARD PLATE) “inactive; negative”; (Test System: AMES SALMONELLA TYPHIMURIUM, Strain/Indicator: TA1538, Metabolic Activation: NONE, Method: STANDARD PLATE) “inactive; negative”; (Test System: AMES SALMONELLA TYPHIMURIUM, Strain/Indicator: TA1538, Metabolic Activation: RAT, LIVER, S-9, AROCLOR 1254, Method: STANDARD PLATE) “inactive; negative”; (Test System: Mouse lymphoma, Strain/Indicator: L5178Y (tk+/tk-), Metabolic Activation: None, Method: Suspension/plate) “inactive; negative”; (Test System: Mouse lymphoma, Strain/Indicator: L5178Y (tk+/tk-), Metabolic Activation: Rat, liver, S-9, Aroclor 1254, Method: Suspension/plate) “active; positive”.

As to `CCCCCCCCCCCCCCCC(=O)O`, the mutagenic call under setting [1] was “inactive; negative”; the mutagenic call (Test System: AMES SALMONELLA TYPHIMURIUM, Strain/Indicator: TA98, Metabolic Activation: RAT LIVER S-9, PHENOBARBITAL AND BETA-NAPHTHOFLAVONE, Method: PREINCUBATION) was “inactive; negative”; the mutagenic call under setting [2] was “inactive; negative”; the mutagenic call (Test System: AMES SALMONELLA TYPHIMURIUM, Strain/Indicator: TA100, Metabolic Activation: RAT LIVER S-9, PHENOBARBITAL AND BETA-NAPHTHOFLAVONE, Method: PREINCUBATION) was “inactive; negative”; the mutagenic call under setting [4] was “inactive; negative”; the mutagenic call (Test System: AMES SALMONELLA TYPHIMURIUM, Strain/Indicator: TA1535, Metabolic Activation: RAT LIVER S-9, PHENOBARBITAL AND BETA-NAPHTHOFLAVONE, Method: PREINCUBATION) is “inactive; negative”. In addition, the mutagenic call was “inactive; negative” under setting [5]; “inactive; negative” (Test System: AMES SALMONELLA TYPHIMURIUM, Strain/Indicator: TA1537, Metabolic Activation: RAT LIVER S-9, PHENOBARBITAL AND BETA-NAPHTHOFLAVONE, Method: PREINCUBATION); “inactive; negative” (Test System: E.COLI, Strain/Indicator: WP2UVRA/PKM101, Metabolic Activation: NONE, Method: PREINCUBATION); “inactive; negative” (Test System: E.COLI, Strain/Indicator: WP2UVRA/PKM101, Metabolic Activation: RAT LIVER S-9, PHENOBARBITAL AND BETA-NAPHTHOFLAVONE, Method: PREINCUBATION).

For `CO`, the mutagenic call runs as follows: under setting [1], “inactive; negative”; (Test System: AMES SALMONELLA TYPHIMURIUM, Strain/Indicator: TA98, Metabolic Activation: RAT, LIVER, S-9, KC 500, Method: PREINCUBATION) “inactive; negative”; under setting [2], “inactive; negative”; (Test System: AMES SALMONELLA TYPHIMURIUM, Strain/Indicator: TA100, Metabolic Activation: RAT, LIVER, S-9, KC 500, Method: PREINCUBATION) “inactive; negative”; under setting [4], “inactive; negative”; (Test System: AMES SALMONELLA TYPHIMURIUM, Strain/Indicator: TA1535, Metabolic Activation: RAT, LIVER, S-9, KC 500, Method: PREINCUBATION) “inactive; negative”. Further, the mutagenic call was “inactive; negative” under setting [5]; “inactive; negative” (Test System: AMES SALMONELLA TYPHIMURIUM, Strain/Indicator: TA1537, Metabolic Activation: RAT, LIVER, S-9, KC 500, Method: PREINCUBATION); “inactive; negative” (Test System: AMES SALMONELLA TYPHIMURIUM, Strain/Indicator: TA1538, Metabolic Activation: NONE, Method: PREINCUBATION); “inactive; negative” (Test System: AMES SALMONELLA TYPHIMURIUM, Strain/Indicator: TA1538, Metabolic Activation: RAT, LIVER, S-9, KC 500, Method: PREINCUBATION); “inactive; negative” under setting [6]; “inactive; negative” (Test System: E. COLI, Strain/Indicator: WP2 UVRA, Metabolic Activation: RAT, LIVER, S-9, KC 500, Method: PREINCUBATION).

For `CCCCN(N=O)C(N)=O`, the mutagenic call by setting is: under setting [2], “active; positive”; (Test System: AMES SALMONELLA TYPHIMURIUM, Strain/Indicator: TA100, Metabolic Activation: RAT, LIVER, S-9, KC500 OR PHENOBARBITAL, Method: LIQUID SUSPENSION) “active; positive”; under setting [4], “active; positive”; under setting [3], “active; positive”; (Test System: CHINESE HAMSTER V-79, Strain/Indicator: V-79/6-THIOGUANINE, Metabolic Activation: NONE, Method: FLASK ASSAY) “active; positive”; (Test System: CHO/HGPRT, Strain/Indicator: CHO-K1-BH4, Metabolic Activation: NONE, Method: STANDARD PLATE) “active; positive”. Besides, the mutagenic call was “active; positive” (Test System: E. COLI B, Strain/Indicator: H/R30R, Metabolic Activation: NONE); “active; positive” (Test System: E. COLI B, Strain/Indicator: HS30R, Metabolic Activation: NONE); “active; positive” (Test System: E. COLI, Strain/Indicator: WP2, Metabolic Activation: NONE, Method: STANDARD PLATE); “active; positive” under setting [6]; “active; positive” (Test System: E. COLI, Strain/Indicator: WP2 UVRA, Metabolic Activation: NONE, Method: STANDARD PLATE); “active; positive” (Test System: E. COLI, Strain/Indicator: WP2 UVRA, Metabolic Activation: RAT, LIVER, S-9, PHENOBARBITAL AND 5,6-BENZOFLAVONE, Method: PREINCUBATION).
